Patent EP0005299A1, “Substituted 1-phenyl-2,3,4,5-tetrahydro-1H-3-benzazepines, process for the preparation thereof, and pharmaceutical compositions containing them” (priority 1978, dated 1979)
Counter-ions that a name gives are not always drawn.

Tests used:
muricidal behavior = assay: Anti-muricide assay; format: in vivo, Male Long Evans rats; conditions: Rattus norvegicus, ip; rats, intraperitoneal injection, mouse presented at 30 and 60 minutes; dosage at which 50% of the tested rats do not kill mice
Description: Anti-muricide assay: Male Long Evans rats weighing 225-250 g are housed I rat per cage, and killers (rats show an instinctive mouse killing behavior (muricide)) are selected initially after being deprived of food for approximately 66 hours. This is the only time the rats are deprived of food. Food, ad libitum, is-avaiable on the cage floor since food bins are not practical because they afford a hiding place for mice. The rats are tested for muricidal behavior the following day and once a week thereafter; non-killers are always eliminated. A non-killer is a rat which fails to kill a mouse placed into his cage within 5 minutes. Drugs are tested in the afternoon of the day following this weekly check for persistance of the killing behavior. Since the rats are not deprived of food or water and rarely attempt to eat the mouse, this behavior is not motivated by hunger. Four weeks after the first test for killing, the rats are injected, i.p., with placebo and then tested 30/60 minutes after the injection. […] Only rats that consistantly kill mice placed in their home cages are used for drug testing. Every treatment-group is comprised of 5 rats. […] Blockade of muricidal behavior is determined by observing the number of surviving mice 5 minutes after being introduced into the rat cages.

methamphetamine = assay: Methamphetamine reversal assay; format: in vivo, mice
[1] = Acute oral toxicity (LD50); conditions: mouse, in vivo; oral dose in mice

SMILES	ED50 (muricidal behavior) [mg/kg]	ED50 (methamphetamine; Mus musculus, po, 4 h) [mg/kg]	LD50 [1] [mg/kg]	protection from methamphetamine lethality (methamphetamine; control, perphenazine at 1 mg/kg, aggregated mice, methamphetamine 15 mg/kg i.p.)
CN1CCc2cc(Cl)c(OC(=O)N(C)C)cc2[C@H](c2ccccc2)C1 [(S)-7-chloro-8-dimethylaminocarbonyloxy-3-methyl-1-phenyl-2,3,4,5-tetrahydro-lH-3-benzazepine hydrochloride]	5.7	1.2	> 300	
OCCN1CCN(CCCN2c3ccccc3Sc3ccc(Cl)cc32)CC1 [perphenazine, reference compound]				complete protection
